The text below walks through data of the OligoGym collection.

The target of this data set is SNHG14. As to conditions: ASO.
The mark [1] stands for this setting: Mouse Primary Neuronal Cell, 0.005 µM.

After the bases stand the sugars from the 5' end (letter, count) and the backbone: PS all phosphorothioate, else s phosphorothioate and o phosphodiester by linkage. Methylation of C is not given here. l = locked nucleic acid (LNA); d = 2'-deoxy (DNA)

In the case of “AGCAACATTATTAACCACC (sugars l1 d15 l3, PS)”, the target mRNA inhibition (Human Neuronal Cell, 7.5 µM) was determined as 38%.

On to “AGCAACATTATTAACCACC (sugars l2 d11 l1 d3 l2, PS)”, for which, for the setting “Human Neuronal Cell, 7.5 µM”, the target mRNA inhibition is 48%.

Consider “AGCAACATTATTAACCACC (sugars lddlldddddddlddldll, PS)”, for which the target mRNA inhibition (Human Neuronal Cell, 7.5 µM) came out at 46%.

In the case of AGCTTTTAACCAGAGT (sugars l2 d10 l4, PS), the target mRNA inhibition (Human Neuronal Cell, 7.5 µM) is 81%.

“AGCTTTTAACCAGAGTGGC (sugars l1 d16 l2, PS)”: the target mRNA inhibition (Human Neuronal Cell, 7.5 µM) came to 56%.

As to “AGCTTTTAACCAGAGTGGCA (sugars l1 d17 l2, PS)”, the target mRNA inhibition (Human Neuronal Cell, 7.5 µM) is 64%.

For AGTTCACTACTATTAC (sugars l3 d10 l3, PS), the target mRNA inhibition is 52% (Human Neuronal Cell, 0.2 µM) and 63% (Human Neuronal Cell, 1 µM).

For “AGTTCTACTATACTTTC (sugars l1 d10 l6, PS)”, the target mRNA inhibition (Human Neuronal Cell, 7.5 µM) stood at 47%.

As for “AGTTCTACTATACTTTC (sugars l3 d8 l2 d2 l2, PS)”, the target mRNA inhibition (Human Neuronal Cell, 7.5 µM) was determined as 12%.

Turning to “AGTTCTACTATACTTTCC (sugars l1 d2 l1 d12 l2, PS)”, where the note is “Human Neuronal Cell, 7.5 µM”, the target mRNA inhibition was 43%.

Regarding “AGTTCTACTATACTTTCC (sugars l1 d13 l1 d1 l2, PS)”, for the setting “Human Neuronal Cell, 7.5 µM”, the target mRNA inhibition was 47%.

“ATATACCCAAAGGCACCT (sugars l3 d12 l3, PS)”: the target mRNA inhibition (Human Neuronal Cell, 0.2 µM) is -13%; the target mRNA inhibition (Human Neuronal Cell, 1 µM) was 15%; the target mRNA inhibition (Human Neuronal Cell, 5 µM) was determined as 21%.

“ATATTGATTCAATTCCC (sugars l2 d9 l2 d1 l3, PS)”: the target mRNA inhibition (Human Neuronal Cell, 7.5 µM) came out at 66%.

As to “ATATTGATTCAATTCCC (sugars lddlldddddddlldll, PS)”, the target mRNA inhibition (Human Neuronal Cell, 7.5 µM) is 63%.

Turning to “ATATTGATTCAATTCCC (sugars ldlddddddddlddlll, PS)”, for the setting “Human Neuronal Cell, 7.5 µM”, the target mRNA inhibition was 67%.

“ATATTGATTCAATTCCC (sugars ldldldddddddldlll, PS)”: the target mRNA inhibition (Human Neuronal Cell, 7.5 µM) worked out at 70%.

With ATCAATATCTTCTCAC (sugars l3 d10 l3, PS), the target mRNA inhibition by setting is: (Human Neuronal Cell, 0.2 µM) 54%; (Human Neuronal Cell, 1 µM) 62%.

For the sequence “ATCATTCTCAACAATTA (sugars l4 d11 l2, PS)”, the target mRNA inhibition reads like this: (Human Neuronal Cell, 0.2 µM) 59%; (Human Neuronal Cell, 1 µM) 70%.

On to “ATCATTCTCAACAATTAAA (sugars l1 d1 l4 d6 l7, PS)”, for which the target mRNA inhibition (Human Neuronal Cell, 7.5 µM) was found to be 13%.

For “ATCATTCTCAACAATTAAA (sugars l4 d8 l7, PS)”, the target mRNA inhibition (Human Neuronal Cell, 7.5 µM) worked out at 27%.

Consider “ATCATTCTCAACAATTAAA (sugars llllldddddddlldldll, PS)”, for which the target mRNA inhibition (Human Neuronal Cell, 7.5 µM) turned out to be 41%.

For ATCTCAACTACCATTT (sugars l4 d10 l2, PS), the target mRNA inhibition is 67% (Human Neuronal Cell, 0.2 µM) and 67% (Human Neuronal Cell, 1 µM).

Turning to ATCTCATGACCACCTA (sugars l3 d10 l3, PS), the target mRNA inhibition (Human Neuronal Cell, 0.2 µM) stood at 60% and the target mRNA inhibition (Human Neuronal Cell, 1 µM) stood at 70%.

For “ATCTCATGACCACCTAA (sugars l1 d3 l1 d8 l4, PS)”, where the note is “Human Neuronal Cell, 7.5 µM”, the target mRNA inhibition amounted to 58%.

On to “ATCTCATGACCACCTAA (sugars l3 d11 l3, PS)”, for which the target mRNA inhibition reads like this: (Human Neuronal Cell, 0.2 µM) 54%; (Human Neuronal Cell, 1 µM) 56%.

With “ATCTCATGACCACCTAA (sugars lddlldddddddldlll, PS)”, under “Human Neuronal Cell, 7.5 µM”, the target mRNA inhibition worked out at 68%.

For “ATCTCATGACCACCTAA (sugars ldlddddddddddldll, PS)”, for the setting “Human Neuronal Cell, 7.5 µM”, the target mRNA inhibition amounted to 61%.

As to ATCTTCAAGAATTCTC (sugars l3 d10 l3, PS), the target mRNA inhibition amounted to 44% (Human Neuronal Cell, 0.2 µM) and 48% (Human Neuronal Cell, 1 µM).

As to “ATCTTTCCATTTATTTCCA (sugars l1 d1 l1 d14 l2, PS)”, the target mRNA inhibition (Human Neuronal Cell, 7.5 µM) is 41%.

For “ATCTTTCCATTTATTTCCA (sugars lddddldddddddddldll, PS)”, under “Human Neuronal Cell, 7.5 µM”, the target mRNA inhibition came to 31%.

Consider “ATCTTTGACATTCCATC (sugars l2 d11 l4, PS)”, for which the target mRNA inhibition by setting is: (Human Neuronal Cell, 0.2 µM) 54%; (Human Neuronal Cell, 1 µM) 61%.

Consider ATGAAACTATTACTCC (sugars l2 d10 l4, PS), for which the target mRNA inhibition by setting is: (Human Neuronal Cell, 0.2 µM) 18%; (Human Neuronal Cell, 1 µM) 35%.

With “ATTCAAAGCACACCACC (sugars l2 d12 l3, PS)”, the target mRNA inhibition stood at 25% (Human Neuronal Cell, 0.2 µM) and 32% (Human Neuronal Cell, 1 µM).

Take ATTCAGTTACCAACTA (sugars l3 d10 l3, PS): the target mRNA inhibition stood at 39% (Human Neuronal Cell, 0.2 µM) and 38% (Human Neuronal Cell, 1 µM).

On to ATTCTCAATTGCACTT (sugars l4 d10 l2, PS), for which the target mRNA inhibition reads like this: (Human Neuronal Cell, 0.2 µM) 49%; (Human Neuronal Cell, 1 µM) 58%.

“ATTGATTCAATTCCCTT (sugars l2 d11 l4, PS)”: the target mRNA inhibition came to 62% (Human Neuronal Cell, 0.2 µM) and 69% (Human Neuronal Cell, 1 µM).

As to “ATTGATTCAATTCCCTT (sugars ldddldddddddldlll, PS)”, the target mRNA inhibition (Human Neuronal Cell, 7.5 µM) is 62%.

With “ATTGATTCAATTCCCTT (sugars ldlddddddddllldll, PS)”, the target mRNA inhibition (Human Neuronal Cell, 7.5 µM) amounted to 47%.

Turning to “ATTGATTCAATTCCCTT (sugars ldllddddddddlddll, PS)”, for the setting “Human Neuronal Cell, 7.5 µM”, the target mRNA inhibition is 74%.

Consider “ATTTACACTTAATTATACTT (sugars ldddldldddddddllllll, PS)”, for which the target mRNA inhibition (Human Neuronal Cell, 7.5 µM) is 46%.

Regarding “ATTTACACTTAATTATACTT (sugars llddlldddddddlllddll, PS)”, the target mRNA inhibition (Human Neuronal Cell, 7.5 µM) was 36%.

Take “ATTTACACTTAATTATACTT (sugars llldlddddddddlldllll, PS)”: the target mRNA inhibition (Human Neuronal Cell, 7.5 µM) is 27%.

As for “ATTTACACTTAATTATACTT (sugars llllddlddddddldddlll, PS)”, the target mRNA inhibition (Human Neuronal Cell, 7.5 µM) turned out to be 21%.

For the sequence “ATTTATTTCCATTTATTTTC (sugars ldddlldddddddldddlll, PS)”, the target mRNA inhibition (Human Neuronal Cell, 7.5 µM) is 64%.

On to “ATTTATTTCCATTTATTTTC (sugars ldlddlddddddddllldll, PS)”, for which the target mRNA inhibition (Human Neuronal Cell, 7.5 µM) stood at 58%.

As for “ATTTATTTCCATTTATTTTC (sugars ldllddddddddddlddlll, PS)”, under “Human Neuronal Cell, 7.5 µM”, the target mRNA inhibition was determined as 60%.

Consider “ATTTTTTTCTTACTATCTTC (sugars lldlddddddddddlddlll, PS)”, for which, where the note is “Human Neuronal Cell, 7.5 µM”, the target mRNA inhibition was 57%.

With “CAAAGATCATTCTCAAC (sugars l2 d1 l1 d7 l6, PS)”, the target mRNA inhibition (Human Neuronal Cell, 7.5 µM) turned out to be 26%.

As to “CAAAGATCATTCTCAAC (sugars l2 d2 l1 d6 l6, PS)”, the target mRNA inhibition (Human Neuronal Cell, 7.5 µM) was determined as 18%.

As for CAAAGATCATTCTCAAC (sugars l3 d8 l6, PS), the target mRNA inhibition (Human Neuronal Cell, 7.5 µM) was determined as 53%.

For the sequence “CAAAGATCATTCTCAACA (sugars l2 d1 l1 d9 l5, PS)”, the target mRNA inhibition (Human Neuronal Cell, 7.5 µM) was 69%.

“CAACATTATTAACCACCTT (sugars l3 d11 l2 d1 l2, PS)”: the target mRNA inhibition (Human Neuronal Cell, 7.5 µM) stood at 51%.

On to “CAACATTATTAACCACCTT (sugars ldldddddddddddldlll, PS)”, for which the target mRNA inhibition (Human Neuronal Cell, 7.5 µM) is 52%.

Turning to “CAACATTATTAACCACCTT (sugars ldlldddddddddddldll, PS)”, where the note is “Human Neuronal Cell, 7.5 µM”, the target mRNA inhibition stood at 58%.

Turning to “CAACATTATTAACCACCTT (sugars lldllddddddddddldll, PS)”, the target mRNA inhibition (Human Neuronal Cell, 7.5 µM) amounted to 53%.

CAAGTTTCCTATATTC (sugars l4 d10 l2, PS): the target mRNA inhibition turned out to be 62% (Human Neuronal Cell, 0.2 µM) and 64% (Human Neuronal Cell, 1 µM).

On to “CACACCTATTATATAAT (sugars l4 d11 l2, PS)”, for which the target mRNA inhibition (Human Neuronal Cell, 0.2 µM) is 2% and the target mRNA inhibition (Human Neuronal Cell, 1 µM) stood at 18%.

With CACATCTTGTATACAA (sugars l3 d10 l3, PS), the target mRNA inhibition is 52% (Human Neuronal Cell, 0.2 µM) and 61% (Human Neuronal Cell, 1 µM).

For the sequence “CACCAGTATTTCTTCTT (sugars l4 d11 l2, PS)”, the target mRNA inhibition is, setting by setting: (Human Neuronal Cell, 0.2 µM) 31%; (Human Neuronal Cell, 1 µM) 27%.

For the sequence “CACCTGATAACAGACCCT (sugars l3 d12 l3, PS)”, the target mRNA inhibition was 24% (Human Neuronal Cell, 0.2 µM); 16% (Human Neuronal Cell, 1 µM); -10% (Human Neuronal Cell, 5 µM).

For CACTAGTACTCTTATT (sugars l4 d10 l2, PS), the target mRNA inhibition is, setting by setting: (Human Neuronal Cell, 0.2 µM) 43%; (Human Neuronal Cell, 1 µM) 38%.

On to CACTTAGAATATCCCT (sugars l2 d10 l4, PS), for which the target mRNA inhibition reads like this: (Human Neuronal Cell, 0.2 µM) 43%; (Human Neuronal Cell, 1 µM) 35%.

Consider CAGATAACTCTAAACC (sugars l4 d10 l2, PS), for which the target mRNA inhibition is, setting by setting: (Human Neuronal Cell, 0.2 µM) 22%; (Human Neuronal Cell, 1 µM) 16%.

Turning to “CAGCTTTTAACCAGAGTG (sugars l3 d13 l2, PS)”, the target mRNA inhibition (Human Neuronal Cell, 7.5 µM) amounted to 76%.

As to “CAGGCAGATAACCTCCAA (sugars l3 d12 l3, PS)”, the target mRNA inhibition turned out to be 12% (Human Neuronal Cell, 0.2 µM); 20% (Human Neuronal Cell, 1 µM); 18% (Human Neuronal Cell, 5 µM).

As for “CATTTACATTATTATTTAAC (sugars l2 d14 l4, PS)”, the target mRNA inhibition (Human Neuronal Cell, 0.2 µM) is 1% and the target mRNA inhibition (Human Neuronal Cell, 1 µM) was -3%.

For CCAAGATAATCATCAT (sugars l3 d10 l3, PS), the target mRNA inhibition (Human Neuronal Cell, 0.2 µM) is 41% and the target mRNA inhibition (Human Neuronal Cell, 1 µM) came out at 42%.

As for “CCATTCTATCTGCCAAA (sugars l2 d11 l4, PS)”, the target mRNA inhibition amounted to 54% (Human Neuronal Cell, 0.2 µM) and 69% (Human Neuronal Cell, 1 µM).

In the case of “CCATTTATTTCCATTTATT (sugars lddlllddddddldddlll, PS)”, the target mRNA inhibition (Human Neuronal Cell, 7.5 µM) amounted to 54%.

Regarding “CCATTTATTTCCATTTATT (sugars ldldlddddddddldldll, PS)”, the target mRNA inhibition (Human Neuronal Cell, 7.5 µM) was determined as 55%.

Take “CCATTTATTTCCATTTATT (sugars llddlddddddddldddll, PS)”: the target mRNA inhibition (Human Neuronal Cell, 7.5 µM) came to 61%.

As to “CCATTTATTTCCATTTATTT (sugars ldlddlddddddddlddlll, PS)”, where the note is “Human Neuronal Cell, 7.5 µM”, the target mRNA inhibition turned out to be 59%.

Turning to “CCCACCAAAGGATATATT (sugars l3 d12 l3, PS)”, the target mRNA inhibition by setting is: (Human Neuronal Cell, 0.2 µM) -28%; (Human Neuronal Cell, 1 µM) 33%; (Human Neuronal Cell, 5 µM) 16%.

Consider “CCTAAAGATCCCATCAC (sugars l2 d12 l3, PS)”, for which the target mRNA inhibition reads like this: (Human Neuronal Cell, 0.2 µM) 34%; (Human Neuronal Cell, 1 µM) 51%.

As to CCTACATCTCATACTT (sugars l2 d10 l4, PS), the target mRNA inhibition under setting [1] is 96.5%.

For the sequence “CCTACATCTCATACTTGC (sugars l2 d12 l4, PS)”, the target mRNA inhibition under setting [1] turned out to be 97.3%.

For CCTCAACTTCACCAAT (sugars l2 d10 l4, PS), the target mRNA inhibition runs as follows: (Human Neuronal Cell, 0.2 µM) 37%; (Human Neuronal Cell, 1 µM) 49%.
